Test results taken from patent US10487093B2, “Heterocyclic compounds, in particular 2-oxo-4,4,5,5,6,6,7,7-octahydrobenzoxazole derivatives, and their use as antibacterial compounds” (priority 2016, dated 2019).
Converted amounts (≈) assume the structure as drawn.

What was measured:
[1] = test system: Enterobacter cloacae NCTC 13406; experiment: MIC, broth microdilution (CLSI) versus planktonic bacteria; assay type: cell-based; settings: NCTC13406; Enterobacter cloacae NCTC 13406; 16-20 h; mode of three independent experiments; read-out: MIC, Ecl NCTC 13406
[2] = test system: E. coli MG1655; experiment: as above; assay type: cell-based, Escherichia coli; settings: Escherichia coli, MG1655, read-out: MIC, Ec MG1655 WT
[3] = test system: E. coli NCTC 13476; experiment: as above; assay type: cell-based; settings: NCTC13476; Escherichia coli NCTC 13476; 16-20 h; mode of three independent experiments; read-out: MIC, Ec NCTC 13476
[4] = test system: E. coli MG1655 D87G; assay type: cell-based, Escherichia coli; settings: compared to the isogenic parent strain E. coli MG1655; D87G mutation on DNA gyrase subunit GyrA
[5] = test system: Haemophilus influenzae ATCC 49247; experiment: MIC, broth microdilution (CLSI) versus planktonic bacteria; assay type: cell-based; settings: ATCC49247; Haemophilus influenzae ATCC 49247; 16-20 h; mode of three independent experiments; read-out: MIC, Hi ATCC 49247
[6] = test system: fluoroquinolone-resistant Enterococcus faecium ATCC 700221; experiment: as above; assay type: cell-based; settings: ATCC700221, 16-20 h, mode of three independent experiments, read-out: MIC, Efm ATCC 700221
[7] = test system: Enterococcus faecium ATCC 19434; experiment: as above; assay type: cell-based; settings: ATCC19434, 16-20 h, mode of three independent experiments, read-out: MIC, Efm ATCC 19434
[8] = test system: Streptococcus pneumoniae ATCC 49619; experiment: as above; assay type: cell-based; settings: ATCC49619; Streptococcus pneumoniae ATCC 49619; 16-20 h; mode of three independent experiments; read-out: MIC, Sp ATCC 49619
[9] = test system: Acinetobacter baumannii NCTC 13420; experiment: as above; assay type: cell-based; settings: NCTC13420; Acinetobacter baumannii NCTC 13420; 16-20 h; mode of three independent experiments; read-out: MIC, Ab NCTC 13420
[10] = test system: Enterococcus faecalis ATCC 29212; experiment: as above; assay type: cell-based; settings: ATCC29212, 16-20 h, mode of three independent experiments, read-out: MIC, Ef ATCC 29212
[11] = test system: human hepatic cell line (HepG2 ATCC HB-8065); experiment: Human cell viability assay (CellTiter-Glo); settings: Homo sapiens, HepG2, 24 h, read-out: IC50 (μg/mL) HepG2
[12] = test system: E. coli ATCC BAA-2452; experiment: MIC, broth microdilution (CLSI) versus planktonic bacteria; assay type: cell-based; settings: Escherichia coli ATCC BAA-2452; 16-20 h; mode of three independent experiments; read-out: MIC, Ec ATCC BAA 2452
[13] = test system: E. coli MG1655 S83L; assay type: cell-based, Escherichia coli; settings: compared to the isogenic parent strain E. coli MG1655; S83L mutation on DNA gyrase subunit GyrA
[14] = test system: Acinetobacter baumannii ATCC 19606; experiment: MIC, broth microdilution (CLSI) versus planktonic bacteria; assay type: cell-based; settings: ATCC19606; Acinetobacter baumannii ATCC 19606; 16-20 h; mode of three independent experiments; read-out: MIC, Ab ATCC 19606
[15] = test system: Escherichia coli ATCC 25922; experiment: as above; assay type: cell-based; settings: ATCC25922; Escherichia coli ATCC 25922; 16-20 h; mode of three independent experiments; read-out: MIC, Ec ATCC 25922
[16] = test system: Staphylococcus aureus ATCC 29213; experiment: as above; assay type: cell-based; settings: ATCC29213; Staphylococcus aureus ATCC 29213; 16-20 h; mode of three independent experiments; read-out: MIC, Sa ATCC 29213
[17] = test system: Pseudomonas aeruginosa ATCC 27853; experiment: as above; assay type: cell-based; settings: ATCC27853; Pseudomonas aeruginosa ATCC 27853; 16-20 h; mode of three independent experiments; read-out: MIC, Pa ATCC 27853

Question: How did the MIC [1] turn out when `N#Cc1ccc2ccc(=O)n(CCN[C@@H]3CC[C@@H]4[C@@H](C3)OC(=O)N4c3ccc4c(n3)NC(=O)CO4)c2c1` [Compound 59, 1-(2-{[(3aR,6R,7aR)-2-oxo-3-{3-oxo-2H,3H,4H-pyrido[3,2-b][1,4]oxazin-6-yl}-octahydro-1,3-benzoxazol-6-yl]amino}ethyl)-2-oxo-1,2-dihydroquinoline-7-carbonitrile] was run?
Answer: < 1 µg/mL

Question: What about the MIC [2] of the same molecule?
Answer: < 1 µg/mL

Question: And the MIC [3]?
Answer: < 1 µg/mL

Question: And the “Fold increase in MIC, E. coli MG1655 D87G” value [4]?
Answer: 1 fold

Question: What about the MIC [5] of the same molecule?
Answer: < 1 µg/mL

Question: What about the MIC [6] of the same molecule?
Answer: < 1 µg/mL

Question: What about the MIC [7] of the same molecule?
Answer: < 1 µg/mL

Question: What about the MIC [8] of the same molecule?
Answer: < 1 µg/mL

Question: And the MIC [9]?
Answer: < 1 µg/mL

Question: What about the MIC [10] of the same molecule?
Answer: < 1 µg/mL

Question: And the IC50 [11]?
Answer: 10 to 100 µg/mL (≈ 20 to 200 µM)

Question: What about the MIC [12] of the same molecule?
Answer: < 1 µg/mL

Question: And the “Fold increase in MIC, E. coli MG1655 S83L” value [13]?
Answer: 1 fold

Question: And the MIC [14]?
Answer: < 1 µg/mL

Question: And the MIC [15]?
Answer: < 1 µg/mL

Question: What about the MIC [16] of the same molecule?
Answer: < 1 µg/mL

Question: What about the MIC [17] of the same molecule?
Answer: < 1 µg/mL

Question: For `COc1ccc2ccc(=O)n(CCN[C@H]3CC[C@H]4[C@H](C3)OC(=O)N4c3ccc4c(n3)NC(=O)CS4)c2n1` [Compound 61, 1-(2-{[(3aS,6S,7aS)-2-oxo-3-{3-oxo-2H,3H,4H-pyrido[3,2-b][1,4]thiazin-6-yl}-octahydro-1,3-benzoxazol-6-yl]amino}ethyl)-7-methoxy-1,2-dihydro-1,8-naphthyridin-2-one], which MIC [1] is on record?
Answer: < 1 µg/mL

Question: What about the MIC [2] of the same molecule?
Answer: < 1 µg/mL

Question: And the MIC [3]?
Answer: < 1 µg/mL

Question: What about the “Fold increase in MIC, E. coli MG1655 D87G” value [4] of the same molecule?
Answer: 1 fold

Question: And the MIC [5]?
Answer: < 1 µg/mL

Question: What about the MIC [6] of the same molecule?
Answer: < 1 µg/mL

Question: What about the MIC [7] of the same molecule?
Answer: < 1 µg/mL

Question: And the MIC [8]?
Answer: < 1 µg/mL

Question: What about the MIC [9] of the same molecule?
Answer: < 1 µg/mL

Question: And the MIC [10]?
Answer: < 1 µg/mL

Question: What about the IC50 [11] of the same molecule?
Answer: 10 to 100 µg/mL (≈ 19.1 to 191 µM)

Question: And the MIC [12]?
Answer: < 1 µg/mL

Question: And the “Fold increase in MIC, E. coli MG1655 S83L” value [13]?
Answer: 1 fold

Question: What about the MIC [14] of the same molecule?
Answer: < 1 µg/mL

Question: And the MIC [15]?
Answer: < 1 µg/mL

Question: And the MIC [16]?
Answer: < 1 µg/mL

Question: What about the MIC [17] of the same molecule?
Answer: < 1 µg/mL

Question: `N#Cc1cnc2ccc(=O)n(CCN[C@H]3CC[C@H]4[C@H](C3)OC(=O)N4c3ccc4c(n3)NC(=O)CS4)c2c1` [Compound 77, 5-(2-{[(3aS,6S,7aS)-2-oxo-3-{3-oxo-2H,3H,4H-pyrido[3,2-b][1,4]thiazin-6-yl}-octahydro-1,3-benzoxazol-6-yl]amino}ethyl)-6-oxo-5,6-dihydro-1,5-naphthyridine-3-carbonitrile] was tested. Which MIC [1] did it give?
Answer: < 1 µg/mL

Question: And the MIC [2]?
Answer: < 1 µg/mL

Question: What about the MIC [3] of the same molecule?
Answer: < 1 µg/mL

Question: What about the “Fold increase in MIC, E. coli MG1655 D87G” value [4] of the same molecule?
Answer: 1 fold

Question: What about the MIC [5] of the same molecule?
Answer: < 1 µg/mL

Question: What about the MIC [7] of the same molecule?
Answer: < 1 µg/mL

Question: What about the MIC [8] of the same molecule?
Answer: < 1 µg/mL

Question: And the MIC [9]?
Answer: < 1 µg/mL

Question: And the IC50 [11]?
Answer: > 100 µg/mL

Question: And the MIC [12]?
Answer: < 1 µg/mL

Question: What about the “Fold increase in MIC, E. coli MG1655 S83L” value [13] of the same molecule?
Answer: 1 fold

Question: What about the MIC [14] of the same molecule?
Answer: < 1 µg/mL

Question: And the MIC [15]?
Answer: < 1 µg/mL

Question: And the MIC [16]?
Answer: < 1 µg/mL

Question: And the MIC [17]?
Answer: 1 to 10 µg/mL (≈ 1.93 to 19.3 µM)

Question: `COc1cnc2ccc(=O)n(CCN[C@@H]3CC[C@@H]4[C@@H](C3)OC(=O)N4c3ccc4c(n3)NC(=O)CO4)c2n1` [Compound 87, (3aR,6R,7aR)-6-[(2-{3-methoxy-6-oxo-5H,6H-pyrido[2,3-b]pyrazin-5-yl}ethyl)amino]-3-{3-oxo-2H,3H,4H-pyrido[3,2-b][1,4]oxazin-6-yl}-octahydro-1,3-benzoxazol-2-one] was tested. Which MIC [1] did it give?
Answer: < 1 µg/mL

Question: What about the MIC [2] of the same molecule?
Answer: < 1 µg/mL

Question: And the MIC [3]?
Answer: < 1 µg/mL

Question: What about the “Fold increase in MIC, E. coli MG1655 D87G” value [4] of the same molecule?
Answer: 2 fold

Question: And the MIC [5]?
Answer: < 1 µg/mL

Question: And the MIC [7]?
Answer: 1 to 10 µg/mL (≈ 1.97 to 19.7 µM)

Question: What about the MIC [8] of the same molecule?
Answer: < 1 µg/mL

Question: What about the MIC [9] of the same molecule?
Answer: < 1 µg/mL

Question: What about the MIC [10] of the same molecule?
Answer: < 1 µg/mL

Question: What about the IC50 [11] of the same molecule?
Answer: 10 to 100 µg/mL (≈ 19.7 to 197 µM)

Question: And the MIC [12]?
Answer: < 1 µg/mL

Question: And the “Fold increase in MIC, E. coli MG1655 S83L” value [13]?
Answer: 2 fold

Question: What about the MIC [14] of the same molecule?
Answer: < 1 µg/mL

Question: What about the MIC [15] of the same molecule?
Answer: < 1 µg/mL

Question: And the MIC [16]?
Answer: < 1 µg/mL

Question: And the MIC [17]?
Answer: < 1 µg/mL

Question: Which results are given for `COc1ccc2ccc(=O)n(CCN[C@H]3CC[C@H]4[C@H](C3)OC(=O)N4c3ccc4c(n3)NC(=O)CO4)c2c1` [Compound 102, 1-(2-{[(3aS,6S,7aS)-2-oxo-3-{3-oxo-2H,3H,4H-pyrido[3,2-b][1,4]oxazin-6-yl}-octahydro-1,3-benzoxazol-6-yl]amino}ethyl)-7-methoxy-1,2-dihydroquinolin-2-one]?
Answer: MIC [1]: < 1 µg/mL; MIC [2]: < 1 µg/mL; MIC [3]: < 1 µg/mL; Fold increase in MIC, E. coli MG1655 D87G [4]: 2 fold; MIC [6]: < 1 µg/mL; MIC [7]: < 1 µg/mL; MIC [8]: < 1 µg/mL; MIC [9]: < 1 µg/mL; MIC [10]: < 1 µg/mL; IC50 [11]: 10 to 100 µg/mL (≈ 19.8 to 198 µM); MIC [12]: < 1 µg/mL; Fold increase in MIC, E. coli MG1655 S83L [13]: 2 fold; MIC [14]: < 1 µg/mL; MIC [15]: < 1 µg/mL; MIC [16]: < 1 µg/mL; MIC [17]: 1 to 10 µg/mL (≈ 1.98 to 19.8 µM)
